Data on five compounds can be found in patent US5545637A, “Process for preparing pharmaceutical compositions containing crystalline anhydrous mycophenolate mofetil salts” (Syntex (U.S.A.) Inc., priority 1995, dated 1996).

Common to all, as to format: physicochemical
A short description of data set [1]: Solubility in typical intravenous formulation solutions. The conditions noted are these: viewed over 3 days, typical intravenous formulation solutions (e.g., 5% dextrose solution or water suitable for injection), 4320 min.
The nature of data set [2]: Comparative stability of MM salt forms. As to conditions: comparison of salt forms, in words.
The nature of data set [3]: Comparative solubility of MM salt forms.

The structures appear in SMILES notation. Structures can show the parent of a compound that is named as a salt.

Consider `COc1c(C)c2c(c(O)c1C/C=C(\C)CCC(=O)OCCN1CCOCC1)C(=O)OC2` [2-(4-morpholino)ethyl-(E)-6-(1,3-dihydro-4-hydroxy-6-methoxy-7-methyl-3-oxo-5-isobenzofuranyl)-4-methyl-4-hexenoate hydrochloride], for which, in data set [1] (hydrochloride), the solubility result is reported as “approximately 84 mg/ml”. Turning to `COc1c(C)c2c(c(O)c1C/C=C(\C)CCC(=O)OCCN1CCOCC1)C(=O)OC2` [MM in its monohydrate salt form], the stability result in data set [2] is reported as “more stable than MM in its amorphous salt form”. For `COc1c(C)c2c(c(O)c1C/C=C(\C)CCC(=O)OCCN1CCOCC1)C(=O)OC2` [amorphous salt form], the solubility characteristics entry in data set [3] (amorphous vs monohydrate salt form, in words) is on record as “better solubility characteristics”. Turning to `COc1c(C)c2c(c(O)c1C/C=C(\C)CCC(=O)OCCN1CCOCC1)C(=O)OC2` [crystalline anhydrous salt form of MM], in data set [3] (anhydrous vs monohydrate salt form), the “increase in solubility over the monohydrate salt form” value is “about a two-fold increase in solubility over the monohydrate salt form”. The stability result in data set [2] is on record as “the same stability characteristics of the monohydrate salt form”. In the case of `COc1c(C)c2c(c(O)c1C/C=C(\C)CCC(=O)OCCN1CCOCC1)C(=O)OC2` [crystalline monohydrate form], the solubility entry in data set [1] is “approximately 40 mg/ml”.
